# In US10314814B2, “Composition comprising 7-hydroxymatairesinol” (LINNEA S.A., priority 2014, dated 2019):
# Tests used:
# Format in all cases: in vivo, mice (C57BL/6J)
# IL-6 and TNF-alfa mRNA = experiment: Test 7 - inflammatory cytokine mRNA expression; details: summary statement; data in FIGS. 6a-6c
# Description: (§1) A group of 140 mice (C57BL/6J) was divided in four sub-groups, group 1 having twenty mice and groups 2 to 4 having forty mice each. Group 1 was fed for 60 days with a low fat (LF) diet (providing 10% calories from fat). Group 2 was fed for 60 days with a high fat (HF) diet (providing 50% calories from fat). Groups 3 and 4 were fed for 60 days with a high fat diet and with 3 mg/kg/day of HMRlignan™ purified HMR (HF+HMR) or 10 mg/kg/day of a total extract of Picea abies (HF+TEP), respectively.
# (§2) Mice were kept in animal cabinets maintained at a temperature of 23° C., with natural light/dark cycles. Before treatments, mice were put 5 days on an low fat diet. Mice were fed by gavage daily for 60 days (groups 3 and 4), whilst control groups (1 and 2) received by gavage the carrier only (corn oil). […]
# The expression of inflammatory cytokine mRNA was measured in the epidydimal adipose tissue (IL-6 and TNF-alfa) and liver (IL-6) in the four groups of mice according to standard procedures as follows.
# (§3) Total RNA was extracted from 10 to 30 mg of tissue using the RNeasy Lipid Tissue Kit (Qiagen, Maryland, USA) and following the manufacture's instruction. […] Quantitative PCR was performed using Assay on Demand kits based on TaqMan chemistry (Applied Biosystems). […]
# GSTs mRNA; 8OHdG and dGU = experiment: Test 10 - oxidative stress (GSTs mRNA, 8OHdG/dGU); details: summary statement; data in FIGS. 9, 10
# Description: as §1
# Mice were kept in animal cabinets maintained at a temperature of 23° C., with natural light/dark cycles. Before treatments, mice were put 5 days on an low fat diet. […]
# The expression of GSTs mRNA was measured in the four groups of mice according to standard procedures as follows.
# as §3
# The expression of 8OHdG and dGU […] was measured in the four groups of mice according to standard procedures as follows.
# Genomic DNA was isolated with commercial kit PUREGENE (Gentra Systems MN, USA), following the manufacturer's instructions, and then quantified using Nanodrop spectrophotometer (Thermo Scientific, DE, USA). […]
# [1] = test system: ATGL, PLA2g7 and LPL mRNA; experiment: Test 8 - regulation of genes of the lipid metabolism (epidydimal adipose tissue); details: summary statement; data in FIGS. 7a-7c
# Description: as §1
# (§4) Mice were kept in animal cabinets maintained at a temperature of 23° C., with natural light/dark cycles. Before treatments, mice were put 5 days on an low fat diet. Mice were fed by gavage daily for 60 days (groups 3 and 4), whilst control groups (1 and 2) received by gavage the carrier only (corn oil). The animals were sacrificed by cervical dislocation and the tissues dissected and immediately frozen on dry ice or fixed for histological evaluation.
# The expression of ATGL, PLA2g7 and LPL mRNA was measured in the epidydimal adipose tissue of the four groups of mice according to standard procedures as follows.
# as §3
# [2] = test system: epidydimal adipose tissue; experiment: Test 2 - histological examination, average adipocyte area
# Description: as §1, §4
# Fresh epidydimal adipose tissue was fixed in formaldehyde, embedded in paraffin and sliced into 3-μm sections. Sections were stained with hematoxylin, counterstained with eosin, then coverslipped with DPX (BDH, Poole, UK). […]
# Average adipocyte area was calculated at ×20 magnification with a dedicated software (Image Pro Plus; Imaging and Computer, Milan). In all samples, at least four different fields of three different tissue sections have been evaluated.
# [3] = Test 1 - fat mass and lean mass quantification (EchoMRI), body weight; details: summary statement; data in FIGS. 1 and 2
# Description: as §1, §2
# EchoMRI provides the most precise measurements of whole body composition parameters (total body fat and lean mass), in alive mice without the need of anesthesia or sedation and in less than 1 minute. Alterations in mouse whole body composition were assessed as a result of exposure to modified diets. […]
# The EchoMRI-100™ QNMR system was housed in a dedicated area to minimize the entry of disease or contaminants. […] The output information was expressed as lean tissue mass and fat mass in grams. […]
# [4] = Test 5 - homeostasis model assessment of insulin resistance (HOMA-IR); details: HOMA Calculator, glucose and insulin after 6 hours of food withdrawal, high fat diet, 60 days
# Description: as §1, §4
# The homeostatic model assessment of insulin resistance (HOMA-IR) was calculated using glucose and insulin concentrations obtained after 6 hours of food withdrawal, using the HOMA Calculator (Diabetes Trials Unit), the Oxford Centre for Diabetes, Endocrinology and Metabolism: homa.calculator@dtu.ox.ac.uk. Plasma insulin levels were measured with an insulin ELISA kit (Millipore, Mouse Insulin 96 well plate assay; CAT. Nº EZRMI-13K).
# liver tissue = experiment: Test 3 - liver steatosis (histology); details: high fat diet, 60 days; HMR 3 mg/kg/day, TEP 10 mg/kg/day; compared with HF group 2 (micro- and macro vesicular steatosis)
# Description: as §1, §4
# Fresh liver tissue was fixed in formaldehyde, embedded in paraffin and sliced into 3-μm sections. Sections were stained with hematoxylin, counterstained with eosin, then coverslipped with DPX (BDH, Poole, UK). Images acquisition was obtained by a digital camera (Nikon Digital Camera DMX 1200). A sample image of the four groups was illustrated in FIG. 3.
# [5] = Test 6 - lipid profiles in blood
# Description: as §1, §4
# The concentration in blood of cholesterol (Total), cholesterol HDL (HDL), cholesterol LDL (LDL) and triglycerides (TG) were determined according to standard methods, by using an ILab ARIES analyzer (Instrumentation Laboratory Company, Lexington, Mass., USA) and dedicated reagents kits IL Test (Instrumentation Laboratory Company, Lexington, Mass., USA)
# PPARg and TFEB mRNA = experiment: Test 9 - regulation of genes of the lipid metabolism (liver); details: summary statement; data in FIGS. 8a, 8b
# Description: as §1, §4
# The expression of PPARg and TFEB mRNA was measured in the liver of the four groups of mice according to standard procedures as follows.
# as §3
# [6] = Test 4 - glucose tolerance test; details: summary statement; data in FIG. 4
# Description: as §1, §4
# For glucose tolerance tests animals were fasted overnight for 12 hours and blood sample were obtained from the tail vein. […] The glucose concentration was evaluated with standard method (Benjamin B. Whiddon and Richard D. Palmiter. Ablation of Neurons Expressing Melanin-Concentrating Hormone (MCH) in Adult Mice Improves Glucose Tolerance Independent of MCH Signaling. J Neurosci. 2013 Jan. 30; 33(5): 2009-2016).
# [7] = test system: hepcidin, ferritin and ferroportin; experiment: Test 11 - iron metabolism; details: summary statement; data in FIG. 11
# Description: as §1, §4
# The levels of hepcidin, ferritin and ferroportin were measured in the four groups of mice according to standard procedures as described, for example, in An-Sheng Zhang et al. “Suppression of hepatic hepcidin expression in response to acute iron deprivation is associated with an increase of matriptase-2 protein”, Blood. Feb. 3, 2011; 117(5):1687-1699).
compound,measurement,setting,value
"COc1cc(CC2C(=O)OCC2C(O)c2ccc(O)c(OC)c2)ccc1O (stereo not drawn) [HMR, 7-hydroxymatairesinol]",concentration of pro-inflammatory cytokines in the epidydimal adipose tissue and liver,IL-6 and TNF-alfa mRNA,reduce
same,cellular oxidative stress,GSTs mRNA; 8OHdG and dGU,able to reduce
same,"regulation of genes of the lipid metabolism in the epidydimal adipose tissue (ATGL mRNA, PLA2g7 gene, LPL gene)",[1],able to contribute to the regulation
same,Average area (adipocyte),"[2]; epidydimal adipose tissue, high fat diet, 60 days, daily gavage, HMR 3 mg/kg/day, TEP 10 mg/kg/day, HF control 20832, LF 9275, data only indicative, group 3 vs group 2 statistically different",18478 μm^2
same,number and area of adipocytes,[2]; summary statement,able to reduce
same,obesity,[3],able to reduce
same,IR: Insulin resistance,"[4]; HF control 6.97, LF 0.69",2.04
same,% S: Insulin sensitivity,"[4]; HF control 15.0, LF 121.0",31.9
same,% B: Steady state beta cell function,"[4]; HF control 101.0, LF 64.4",55.0
same,Liver histology (steatosis),liver tissue,"some vacuoles, much less than group 2"
same,cholesterol LDL (LDL) concentration in blood,"[5]; high fat diet, 60 days, HF control 56, LF 18",51
same,cholesterol HDL (HDL) concentration in blood,"[5]; high fat diet, 60 days, HF control 133, LF 79",129
same,triglycerides (TG) concentration in blood,"[5]; high fat diet, 60 days, HF control 153, LF 88",140
same,cholesterol (Total) concentration in blood,"[5]; high fat diet, 60 days, HMR 3 mg/kg/day, TEP 10 mg/kg/day, HF control 220, LF 114",209
same,dyslipidemia,[5]; summary statement,able to reduce
same,"regulation of genes of the lipid metabolism in the liver (PPARg gene, TFEB gene)",PPARg and TFEB mRNA,able to contribute to the regulation
same,glycaemia,[6],able to reduce
same,iron metabolism,[7],regulate
